# Measurements: patent publication US9187472B2 (AbbVie Inc., priority 2012, dated 2015)
# Experiments:
# [1] = molecular target: NAMPT (human, recombinant, C-terminally His-tagged) (Homo sapiens, UniProt P43490); assay: Time-Resolved Fluorescence Resonance Energy Transfer (TR-FRET) Binding Assay of NAMPT; details: without substrates; 6.8 nM NAMPT, 200 nM probe, 3 hours equilibration
# In short: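 Competitive binding against an Oregon Green 488 tracer (200 nM), 6.8 nM His-tagged enzyme, 1 nM Tb antibody, 2% DMSO, 3 h at RT. IC50 derived from TR-FRET ratios.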
# [2] = system: PC3 cells; assay: NAMPT Cell Proliferation Assay; format: cell-based; details: Homo sapiens, PC-3, 120 h, 5 days incubation, cell viability by Cell Titer Glo
# In short: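 IC50 values derive from sigmoidal dose-response fits of percent inhibition of PC3 viability, measured by luminescence after 5 days of compound treatment. Cells (500/well, RPMI containing 10% heat-inactivated FBS) are allowed to attach overnight, and compounds are tested at 10-fold dilutions between 10 μM and 1×10^−5 μM.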
# [3] = molecular target: NAMPT (Homo sapiens, UniProt P43490); assay: TR-FRET Binding Assay of NAMPT with PRPP; details: with 200 μM PRPP and 2.5 mM ATP; 2 nM NAMPT, 2 nM probe, 16 hours equilibration
# Sequence of NAMPT (P43490 whole entry): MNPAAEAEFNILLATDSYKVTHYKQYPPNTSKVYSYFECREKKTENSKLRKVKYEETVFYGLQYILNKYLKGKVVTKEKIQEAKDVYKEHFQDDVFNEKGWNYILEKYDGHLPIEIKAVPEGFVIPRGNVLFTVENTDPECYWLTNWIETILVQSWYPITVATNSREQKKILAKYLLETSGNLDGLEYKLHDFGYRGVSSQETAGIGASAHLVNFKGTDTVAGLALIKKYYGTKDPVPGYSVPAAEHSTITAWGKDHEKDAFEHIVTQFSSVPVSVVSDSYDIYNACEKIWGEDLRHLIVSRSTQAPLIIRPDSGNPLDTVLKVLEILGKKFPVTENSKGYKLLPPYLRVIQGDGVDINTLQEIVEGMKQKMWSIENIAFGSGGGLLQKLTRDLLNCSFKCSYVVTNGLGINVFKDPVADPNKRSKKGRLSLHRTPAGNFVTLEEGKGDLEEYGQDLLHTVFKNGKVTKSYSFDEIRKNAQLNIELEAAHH
# In short: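 Read-out is TR-FRET after a 16 h equilibration allowing possible compound modification by the enzyme. Final mix: 2 nM NAMPT, 2 nM probe, 1 nM Tb-anti-His antibody, 200 μM PRPP, 2.5 mM ATP, 2% DMSO.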
# Sequence of NAMPT (human, recombinant, C-terminally His-tagged) (P43490 whole entry): as above
SMILES,IC50 [1] [µM],IC50 [2] [µM],IC50 [3] [µM]
"CC(C)OCCNC(=O)c1ccc(NC(=O)Nc2ccc3nccn3c2)cc1 [Example 12, -[(imidazo[1,2-a]pyridin-6-ylcarbamoyl)amino]-N-[2-(propan-2-yloxy)ethyl]benzamide]",0.486,0.213,0.000292
"O=C(CC1CCCC1)Nc1ccc(C(=O)NCc2ccn3ccnc3c2)c(F)c1 [Example 463, 4-[(cyclopentylacetyl)amino]-2-fluoro-N-(imidazo[1,2-a]pyridin-7-ylmethyl)benzamide]",0.314,0.234,0.000529
"O=C(NCc1ccn2ccnc2c1)c1ccc(C2CCN(C(=O)CC(F)(F)F)C2)s1 (stereo not drawn) [Example 540, N-(imidazo[1,2-a]pyridin-7-ylmethyl)-5-[1-(3,3,3-trifluoropropanoyl)pyrrolidin-3-yl]thiophene-2-carboxamide]",0.266,0.074,0.000305
"CC(C)CC(=O)N1CCC(c2ncc(C(=O)NCc3ccn4ccnc4c3)s2)C1 (stereo not drawn) [Example 806, N-(imidazo[1,2-a]pyridin-7-ylmethyl)-2-[1-(3-methylbutanoyl)pyrrolidin-3-yl]-1,3-thiazole-5-carboxamide]",2.74,1.4,0.000543
"O=C(NCc1ccn2ccnc2c1)c1ccc(C2CCN(C(=O)c3cccc(OC(F)(F)F)c3)CC2)cc1 [Example 703, N-(imidazo[1,2-a]pyridin-7-ylmethyl)-4-{1-[3-(trifluoromethoxy)benzoyl]piperidin-4-yl}benzamide]",0.559,0.0903,0.000824
"CC1(C(=O)N2CCC(c3ccc(C(=O)NCc4ccn5ccnc5c4)cc3)CC2)CC1 [Example 538, N-(imidazo[1,2-a]pyridin-7-ylmethyl)-4-{1-[(1-methylcyclopropyl)carbonyl]piperidin-4-yl}benzamide]",0.275,0.00333,0.000514
"CC(C)C(=O)N1CC=C(c2ccc(C(=O)NCc3ccn4ccnc4c3)o2)CC1 [Example 744, N-(imidazo[1,2-a]pyridin-7-ylmethyl)-5-[1-(2-methylpropanoyl)-1,2,3,6-tetrahydropyridin-4-yl]furan-2-carboxamide]",1.08,0.505,0.000806
"CC[C@H](C)C(=O)NC1(c2ccc(C(=O)NCc3ccn4ccnc4c3)s2)CCC1 [Example 470, N-(imidazo[1,2-a]pyridin-7-ylmethyl)-5-(1-{[(2S)-2-methylbutanoyl]amino}cyclobutyl)thiophene-2-carboxamide]",5.58,0.936,0.000456
"O=C(NCc1ccn2ccnc2c1)c1ccc(C2=CCN(C(=O)c3ccccc3)CC2)o1 [Example 746, 5-(1-benzoyl-1,2,3,6-tetrahydropyridin-4-yl)-N-(imidazo[1,2-a]pyridin-7-ylmethyl)furan-2-carboxamide]",0.795,0.116,0.000839
"Cc1cc(CC(=O)N(C[C@H]2CCCO2)c2ncc(C(=O)NCc3ccn4ccnc4c3)s2)no1 [Example 193, N-(imidazo[1,2-a]pyridin-7-ylmethyl)-2-{[(5-methyl-1,2-oxazol-3-yl)acetyl][(2R)-tetrahydrofuran-2-ylmethyl]amino}-1,3-thiazole-5-carboxamide]",0.516,0.0199,0.000266
"O=C(NCc1ccn2ccnc2c1)Nc1ccc(OC2CCN(C(=O)[C@@H]3CCCO3)CC2)cc1 [Example 449, 1-(imidazo[1,2-a]pyridin-7-ylmethyl)-3-[4-({1-[(2S)-tetrahydrofuran-2-ylcarbonyl]piperidin-4-yl}oxy)phenyl]urea]",0.256,0.0236,0.000169
"CC[C@H](C)C(=O)N1CC(c2ccc(C(=O)NCc3ccn4ccnc4c3)cc2)C1 [Example 547, N-(imidazo[1,2-a]pyridin-7-ylmethyl)-4-{1-[(2S)-2-methylbutanoyl]azetidin-3-yl}benzamide]",0.498,0.0256,0.000423
"CC(C)Cn1cc(-c2sc(C(=O)NCc3ccn4ccnc4c3)cc2Cl)cn1 [Example 578, 4-chloro-N-(imidazo[1,2-a]pyridin-7-ylmethyl)-5-[1-(2-methylpropyl)-1H-pyrazol-4-yl]thiophene-2-carboxamide]",0.682,4.6,0.000775

# Now those with a lower IC50 [1], led by results:
IC50 [1] [µM],IC50 [2] [µM],IC50 [3] [µM],SMILES
0.23,0.0688,0.000998,"COc1ccc(C(=O)N2CC(c3ccc(C(=O)NCc4ccn5ccnc5c4)cc3)C2)cc1 [Example 655, N-(imidazo[1,2-a]pyridin-7-ylmethyl)-4-[1-(4-methoxybenzoyl)azetidin-3-yl]benzamide]"
0.191,0.00601,0.00108,"COCCC(=O)N(C[C@H]1CCCO1)c1ncc(C(=O)NCc2ccc3nccn3c2)s1 [Example 145, N-(imidazo[1,2-a]pyridin-6-ylmethyl)-2-{(3-methoxypropanoyl)[(2R)-tetrahydrofuran-2-ylmethyl]amino}-1,3-thiazole-5-carboxamide]"
0.135,0.0687,0.000465,"O=C(NCc1ccn2ccnc2c1)c1ccc(C2CCN(C(=O)Cc3cc(F)cc(F)c3)C2)s1 (stereo not drawn) [Example 764, 5-{1[(3,5-difluorophenyl)acetyl]pyrrolidin-3-yl}-N-(imidazo[1,2-a]pyridin-7-ylmethyl)thiophene-2-carboxamide]"
0.106,0.00661,0.000476,"O=C(NCc1ccc2nccn2c1)c1ccc(C2=CCN(C(=O)C3CCC(F)(F)CC3)CC2)cc1 [Example 105, 4-{1-[(4,4-difluorocyclohexyl)carbonyl]-1,2,3,6-tetrahydropyridin-4-yl}-N-(imidazo[1,2-a]pyridin-6-ylmethyl)benzamide]"
0.0864,0.00677,0.000213,"Cc1noc(C)c1C(=O)N1CCC(c2ccc(C(=O)NCc3ccn4ccnc4c3)cc2)CC1 [Example 525, 4-{1-[(3,5-dimethyl-1,2-oxazol-4-yl)carbonyl]piperidin-4-yl}-N-(imidazo[1,2-a]pyridin-7-ylmethyl)benzamide]"
0.0841,0.0173,0.000259,CC[C@H](C)C(=O)N1CCC(c2ccc(NC(=O)NCc3ccn4ccnc4c3)cc2)C1 (stereo partly drawn) [Example 381]
0.0632,0.145,0.000264,"O=C(CC1CCCO1)Nc1ccc(NC(=O)NCc2ccn3ccnc3c2)cc1 (stereo not drawn) [Example 283, N-(4-{[(imidazo[1,2-a]pyridin-7-ylmethyl)carbamoyl]amino}phenyl)-2-(tetrahydrofuran-2-yl)acetamide]"
0.0226,0.00238,0.000455,"COc1ccc(C(=O)N2CCC(c3ccc(C(=O)NCc4ccn5ccnc5c4)s3)C2)cc1 (stereo not drawn) [Example 784, N-(imidazo[1,2-a]pyridin-7-ylmethyl)-5-[1-(4-methoxybenzoyl)pyrrolidin-3-yl]thiophene-2-carboxamide]"
0.00779,0.00679,0.000897,"O=C(NCc1cn2ccnc2cn1)c1ccc(C2CCN(C(=O)c3ccccc3F)CC2)cc1 [Example 826, 4-[1-(2-fluorobenzoyl)piperidin-4-yl]-N-(imidazo[1,2-a]pyrazin-6-ylmethyl)benzamide]"
